These results are taken from patent US20230103631A1, “PEPTIDES AS SELECTIVE GIP RECEPTOR AGONISTS” (Sanofi, priority 2020, published 2023).

Series [1] has as its target human GLP-1 receptor (hGLP-1R) (Homo sapiens, UniProt P43220). The series can be described thus: cAMP HTRF assay, HEK-293 cell line over-expressing human GLP-1 receptor. The class given is cell-based. The note with it: HEK-293, cAMP, 0% HSA. The procedure: Each vial contained 1.8 ml cells. The vials were slowly frozen to −80° C. in isopropanol, and then transferred in liquid nitrogen for storage.
Prior to their use, frozen cells were thawed quickly at 37° C. and washed (5 min at 900 rpm) with 20 ml cell buffer (1× HBSS; 20 mM HEPES, plus 0.1% HSA if indicated in Example conditions).
For measurement of cAMP generation, 5 μl cells (final 5000 cells/well) and 5 μl of test compound were added to a 384-well plate, followed by incubation for 30 min at room temperature.
The cAMP generated was determined using a kit from Cisbio Corp. based on HTRF (Homogenous Time Resolved Fluorescence). The cAMP assay was performed according to manufacturer's instructions (Cisbio).
(In general: Time-resolved FRET reads energy transfer from a long-lived donor to a nearby acceptor.)

A short description of the next series: physchem. The note with it: for Soluble amount: 24 h, pH 7.4; for solubility at 24 h: pH 7.4, Soluble amount. The class given is physicochemical. As to the method: Prior to the solubility measurement of a peptide batch, its purity was determined through UHPLC/MS. […] Therefore, solutions from solid samples were prepared in a buffer system with a concentration of 10 mg/ml compound based on the previously determined % purity: Solubility buffer system A) 100 mM phosphate buffer pH 7.4 […] Solubility buffer system C) 100 mM phosphate buffer pH 7.4, 2.7 mg/ml m-cresol UHPLC-UV was performed after 1 h of gentle agitation and storage at 5° C. over night (24 h) from the supernatant, which was obtained after 15 min of centrifugation at 2500 RCF (relative centrifugal acceleration). […] The different UV extinction coefficients of sample and reference peptide were calculated based on the different amino acid sequences and considered in the concentration calculation. The analytical method used was Analytical UHPLC Method A. Peptide samples were prepared in solubility buffer system A or C and solubility was assessed as described in Methods.

Another series has as its target human GLP-1 receptor (human, UniProt P43220 24-463). The series can be described thus: cell-based or functional assay.
The target in another series is T1, human GIP receptor (human, UniProt P48546 22-466).
T1 sequence (looked up): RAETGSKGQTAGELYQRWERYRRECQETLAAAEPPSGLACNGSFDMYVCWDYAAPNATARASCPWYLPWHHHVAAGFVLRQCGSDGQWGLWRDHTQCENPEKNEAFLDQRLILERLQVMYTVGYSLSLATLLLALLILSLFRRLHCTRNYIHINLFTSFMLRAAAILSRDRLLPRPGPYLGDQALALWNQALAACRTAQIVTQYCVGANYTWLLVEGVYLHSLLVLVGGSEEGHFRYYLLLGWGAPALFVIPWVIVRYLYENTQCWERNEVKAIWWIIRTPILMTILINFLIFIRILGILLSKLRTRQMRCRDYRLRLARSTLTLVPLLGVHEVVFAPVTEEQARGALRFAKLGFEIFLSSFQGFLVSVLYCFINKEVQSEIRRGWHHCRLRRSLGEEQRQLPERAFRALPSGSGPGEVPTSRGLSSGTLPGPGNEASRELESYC
The series can be described thus: cell-based or functional assay.

*1 amine or outer side, *2 acyl side, *3 side chain or, on linkers, in order; H or OH if unused. Where a SMILES comes first, the peptide text is derived from it. Where no end group is shown, it is not given here. Side-chain parts run from the residue outwards. [ ]: non-standard residue; d: D form. The star is where a group is joined. C18 diacid = O=C(O)CCCCCCCCCCCCCCCCC(=O)*; γGlu = O=C(O)[C@H](CCC(=O)[*:2])N[*:1]; NMeY = CN[C@@H](Cc1ccc(O)cc1)C(=O)O; AEEA = NCCOCCOCC(=O)O; Aib = CC(C)(N)C(=O)O; Sar = CNCC(=O)O

Chain of human GLP-1 receptor (hGLP-1R) (P43220 24-463): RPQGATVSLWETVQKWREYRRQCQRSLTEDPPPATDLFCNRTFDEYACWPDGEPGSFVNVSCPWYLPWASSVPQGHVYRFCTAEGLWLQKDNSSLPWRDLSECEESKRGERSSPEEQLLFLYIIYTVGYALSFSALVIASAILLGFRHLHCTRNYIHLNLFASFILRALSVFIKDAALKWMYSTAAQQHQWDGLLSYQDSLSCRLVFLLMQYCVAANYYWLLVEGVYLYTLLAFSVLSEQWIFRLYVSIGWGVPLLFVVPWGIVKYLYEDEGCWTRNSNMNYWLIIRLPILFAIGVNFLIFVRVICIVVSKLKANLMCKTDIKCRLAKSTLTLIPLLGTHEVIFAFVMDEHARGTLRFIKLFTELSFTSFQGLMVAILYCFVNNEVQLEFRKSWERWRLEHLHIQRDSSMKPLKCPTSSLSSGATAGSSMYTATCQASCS

For the molecule `CC[C@H](C)[C@H](NC(=O)[C@H](Cc1ccccc1)NC(=O)[C@H](CCC(=O)O)NC(=O)[C@H](CCC(=O)O)NC(=O)[C@H](CCC(N)=O)NC(=O)[C@H](Cc1c[nH]cn1)NC(=O)[C@@H](NC(=O)[C@H](CCCNC(=N)N)NC(=O)[C@H](CC(=O)O)NC(=O)[C@H](CCCCNC(=O)COCCOCCNC(=O)COCCOCCNC(=O)COCCOCCNC(=O)CC[C@H](NC(=O)CCCCCCCCCCCCCCCCC(=O)O)C(=O)O)NC(=O)C(C)(C)NC(=O)[C@@H](NC(=O)[C@H](CO)NC(=O)[C@H](CC(C)C)NC(=O)[C@H](CC(=O)O)NC(=O)[C@H](CO)NC(=O)[C@@H](NC(=O)[C@H](Cc1ccccc1)NC(=O)[C@@H](NC(=O)CNC(=O)[C@H](CCC(=O)O)NC(=O)C(C)(C)NC(=O)[C@@H](N)Cc1ccc(O)cc1)[C@@H](C)O)[C@@H](C)CC)[C@@H](C)CC)[C@@H](C)CC)C(=O)N[C@@H](CCC(=O)O)C(=O)N[C@@H](Cc1c[nH]c2ccccc12)C(=O)N[C@@H](CC(C)C)C(=O)N[C@@H](CC(C)C)C(=O)N[C@@H](C)C(=O)N[C@@H](CCC(N)=O)C(=O)NCC(=O)N1CCC[C@H]1C(=O)N[C@@H](CO)C(=O)N[C@@H](CO)C(=O)NCC(=O)N[C@@H](C)C(=O)N1CCC[C@H]1C(=O)N1CCC[C@H]1C(=O)N1CCC[C@H]1C(=O)N[C@@H](CO)C(N)=O` [SEQ ID NO: 12, H2N-Y-Aib-E-G-T-F-I-S-D-I-S-I-Aib-K[{AEEA}3-gGlu-C18OH]-DRIHQEEFIEWILAQGPSSGAPPPS-NH2] (H-Y[Aib]EGTFISDLSI[Aib]K([AEEA-AEEA-AEEA-γGlu-C18 diacid])DRIHQEEFIEWLLAQGPSSGAPPPS-NH2), in series [1], the EC50 (commonly the concentration that produces a half-maximal response) was over 10 nM. Besides, in “physchem”, the Soluble amount is over 9.1 mg/mL and the solubility (as a rule, how much of the substance goes into solution per volume) at 24 h was over 8800 µg/mL.

With `CC[C@H](C)[C@H](NC(=O)[C@H](Cc1ccccc1)NC(=O)[C@H](CCC(=O)O)NC(=O)[C@H](CCC(=O)O)NC(=O)[C@H](CCC(N)=O)NC(=O)[C@H](Cc1c[nH]cn1)NC(=O)[C@@H](NC(=O)[C@H](CCCNC(=N)N)NC(=O)[C@H](CC(=O)O)NC(=O)[C@H](CCCCNC(=O)COCCOCCNC(=O)COCCOCCNC(=O)CC[C@H](NC(=O)CCCCCCCCCCCCCCCCC(=O)O)C(=O)O)NC(=O)C(C)(C)NC(=O)[C@@H](NC(=O)[C@H](CO)NC(=O)[C@H](CC(C)C)NC(=O)[C@H](CC(=O)O)NC(=O)[C@H](CO)NC(=O)[C@@H](NC(=O)[C@H](Cc1ccccc1)NC(=O)[C@@H](NC(=O)CNC(=O)[C@H](CCC(=O)O)NC(=O)C(C)(C)NC(=O)[C@H](Cc1ccc(O)cc1)NC)[C@@H](C)O)[C@@H](C)CC)[C@@H](C)CC)[C@@H](C)CC)C(=O)N[C@@H](CCC(=O)O)C(=O)N[C@@H](Cc1c[nH]c2ccccc12)C(=O)N[C@@H](CC(C)C)C(=O)N[C@@H](CC(C)C)C(=O)N[C@@H](C)C(=O)N[C@@H](CCC(N)=O)C(=O)NCC(=O)N1CCC[C@H]1C(=O)N[C@@H](CO)C(=O)N[C@@H](CO)C(=O)NCC(=O)N[C@@H](C)C(=O)N1CCC[C@H]1C(=O)N1CCC[C@H]1C(=O)N1CCC[C@H]1C(=O)N[C@@H](CO)C(N)=O` [SEQ ID NO: 13, MeHN-Y-Aib-E-G-T-F-I-S-D-I-S-I-Aib-K[{AEEA}2-gGlu-C18OH]-DRIHQEEFIEWILAQGPSSGAPPPS-NH2] (H-[NMeY][Aib]EGTFISDLSI[Aib]K([AEEA-AEEA-γGlu-C18 diacid])DRIHQEEFIEWLLAQGPSSGAPPPS-NH2), in series [1], the half-maximal effective concentration (EC50) was over 10 nM. In the series “physchem”, this molecule returned a Soluble amount of over 11.0 mg/mL and a solubility at 24 h of over 10200 µg/mL.

For the molecule `CC[C@H](C)[C@H](NC(=O)[C@H](Cc1ccccc1)NC(=O)[C@H](CCC(=O)O)NC(=O)[C@H](CCC(=O)O)NC(=O)[C@H](CCC(N)=O)NC(=O)[C@H](Cc1c[nH]cn1)NC(=O)[C@@H](NC(=O)[C@H](CCCNC(=N)N)NC(=O)[C@H](CC(=O)O)NC(=O)[C@H](CCCCNC(=O)COCCOCCNC(=O)COCCOCCNC(=O)CC[C@H](NC(=O)CC[C@H](NC(=O)CCCCCCCCCCCCCCCCC(=O)O)C(=O)O)C(=O)O)NC(=O)C(C)(C)NC(=O)[C@@H](NC(=O)[C@H](CO)NC(=O)[C@H](CC(C)C)NC(=O)[C@H](CC(=O)O)NC(=O)[C@H](CO)NC(=O)[C@@H](NC(=O)[C@H](Cc1ccccc1)NC(=O)[C@@H](NC(=O)CNC(=O)[C@H](CCC(=O)O)NC(=O)C(C)(C)NC(=O)[C@@H](N)Cc1ccc(O)cc1)[C@@H](C)O)[C@@H](C)CC)[C@@H](C)CC)[C@@H](C)CC)C(=O)N[C@@H](CCC(=O)O)C(=O)N[C@@H](Cc1c[nH]c2ccccc12)C(=O)N[C@@H](CC(C)C)C(=O)N[C@@H](CC(C)C)C(=O)N[C@@H](C)C(=O)N[C@@H](CCC(N)=O)C(=O)NCC(=O)N1CCC[C@H]1C(=O)N[C@@H](CO)C(=O)N[C@@H](CO)C(=O)NCC(=O)N[C@@H](C)C(=O)N1CCC[C@H]1C(=O)N1CCC[C@H]1C(=O)N1CCC[C@H]1C(=O)N[C@@H](CO)C(N)=O` [SEQ ID NO: 14, H2N-Y-Aib-E-G-T-F-I-S-D-I-S-I-Aib-K[{AEEA}2-{gGlu}2-C18OH]-DRIHQEEFIEWILAQGPSSGAPPPS-NH2] (H-Y[Aib]EGTFISDLSI[Aib]K([AEEA-AEEA-γGlu-γGlu-C18 diacid])DRIHQEEFIEWLLAQGPSSGAPPPS-NH2), the EC50 in series [1] was over 10 nM. In the series “physchem”, the Soluble amount was over 9.7 mg/mL and the solubility at 24 h was over 9300 µg/mL.

B1: SEQ ID NO: 17 (peptide)
peptide: Y[Aib]EGTFISDLSI[Aib]K([Sar-Sar-Sar-γGlu-C18 diacid])DRIHQEEFIEWLLAQGPSSGAPPPS-NH2
modifications: N-terminus assumed
SMILES: CC[C@H](C)[C@H](NC(=O)[C@H](Cc1ccccc1)NC(=O)[C@H](CCC(=O)O)NC(=O)[C@H](CCC(=O)O)NC(=O)[C@H](CCC(N)=O)NC(=O)[C@H](Cc1c[nH]cn1)NC(=O)[C@@H](NC(=O)[C@H](CCCNC(=N)N)NC(=O)[C@H](CC(=O)O)NC(=O)[C@H](CCCCNC(=O)CN(C)C(=O)CN(C)C(=O)CN(C)C(=O)CC[C@H](NC(=O)CCCCCCCCCCCCCCCCC(=O)O)C(=O)O)NC(=O)C(C)(C)NC(=O)[C@@H](NC(=O)[C@H](CO)NC(=O)[C@H](CC(C)C)NC(=O)[C@H](CC(=O)O)NC(=O)[C@H](CO)NC(=O)[C@@H](NC(=O)[C@H](Cc1ccccc1)NC(=O)[C@@H](NC(=O)CNC(=O)[C@H](CCC(=O)O)NC(=O)C(C)(C)NC(=O)[C@@H](N)Cc1ccc(O)cc1)[C@@H](C)O)[C@@H](C)CC)[C@@H](C)CC)[C@@H](C)CC)C(=O)N[C@@H](CCC(=O)O)C(=O)N[C@@H](Cc1c[nH]c2ccccc12)C(=O)N[C@@H](CC(C)C)C(=O)N[C@@H](CC(C)C)C(=O)N[C@@H](C)C(=O)N[C@@H](CCC(N)=O)C(=O)NCC(=O)N1CCC[C@H]1C(=O)N[C@@H](CO)C(=O)N[C@@H](CO)C(=O)NCC(=O)N[C@@H](C)C(=O)N1CCC[C@H]1C(=O)N1CCC[C@H]1C(=O)N1CCC[C@H]1C(=O)N[C@@H](CO)C(N)=O
Take B1: the “EC50 hGLP-1R 0% HSA, cAMP in HEK-293 cells” value with human GLP-1 receptor was over 10 nM. Also, in the series with human GIP receptor, the “EC50 hGIPR 0% HSA, cAMP in HEK-293 cells” value is 0.00029 nM and the “EC50 hGIPR 0.1% HSA, cAMP in HEK-293 cells” value worked out at 0.00339 nM.
